Patent US5091365A, “Cyclic peptides as promoters of absorption on administration onto the mucosa” (Hoechst Aktiengesellschaft, priority 1987, dated 1992)

Assays:
[1] = test system: female rats; test: Ovulation induction in PMSG-pretreated, phenobarbital-blocked female rats (number of ova counted); type: in vivo, rat
Experimental: 1. The effect of cyclic peptides on the nasal and rectal absorption of LHRH (gonadorelin) and LHRH agonists (for example buserelin) was investigated in the following way: female rats weighing 60 g are pretreated with horse serum gonadotropin (PMSG) 10 I.U. (day 1, 09:00) for follicle stimulation. On the third day after the pretreatment, the ovulation which spontaneously occurs at about 14:00 is suppressed by injection of phenobarbital (4 mg/animal i.p. around 13:00). The treatment with the test substance (for example LHRH or buserelin intranasally in a physiologically tolerated buffer solution of pH 3.0-7.5 in a volume of 2-20 μl, rectal administration of suppositories etc.) is carried out at about 13:30. This treatment induces ovulation dose-dependently. On the next day of the experiment (day 4) the animals are sacrificed at about 09:00, both uterine tubes are dissected out and, after staining with patent blue, the number of ova is counted under a stereomicroscope (ovulatory effect of the test substances). The increase in the absorption of the test substances from mucosal surfaces is assessed by comparison of the effect on ovulation in the absence or after addition of, for example, bacitracin 0.001-0.05M. It is also possible to use as parameter of the effect in the same design of experiment the dose-dependent increase in luteinizing hormone (LH) in the serum one hour after treatment. [Sandow J, von Rechenberg W & Jerzabek G (1976): The effect of LHRH, prostaglandins and synthetic analogues of LHRH on ovarian metabolism. Europ. J. Obstetr. Gynaec. Reprod. Biol. 6, 185-190.]

[2] = test system: female rats; test: Release of growth hormone (GH) in serum of PMSG-pretreated rats, radioimmunoassay; type: in vivo, rat; conditions: for finding with other GHRH agonists on addition of bacitracin (GH release): compared with (DAla2) GRF-29 amide: 40 μg without = 20 μg with 0.001M bacitracin
Experimental: 3. The effect of cyclic peptides of the nasal absorption of GHRH analogs was investigated in the following way: In the same model as described for the ovulatory effect of LHRH, it is possible on the third day after the pretreatment with PMSG to test the release of growth hormone (GH). GH in serum is determined 15-120 minutes after the treatment (for example nasally or rectally) by a specific radioimmunoassay.

[3] = test system: female rats; test: Increase in luteinizing hormone (LH) in serum, same design of experiment in female rats; type: in vivo, rat
[4] = test system: male rats; test: LH release in male rats under urethane anesthesia over 6-7 hours; type: in vivo, rat; conditions: aid 0.01M, 10 ng of buserelin
Experimental: 2. An example of another method suitable for detecting the enhancement of the effect due to increased absorption is determination of the LH release in male rats (weighing 100 g, under urethane anesthesia). […] It emerged that both bacitracin and colistin and polymyxin B (0.01M) increased the effect of a dose of 10 ng of buserelin, measured by the areas under the curve, by a factor of 3.3-14.

[5] = test system: male rats; test: Corticosterone release in serum of male rats after nasal ACTH analog, radioimmunoassay; type: in vivo, rat; conditions: over 3 h after nasal alsactide (ACTH-17) 5 μg in the presence of 0.01M bacitracin
Experimental: 4. The effect of cyclic peptides on the absorption of ACTH (corticotropin) and ACTH analogs was investigated in male rats (weighing 100 g) after treatment under anesthesia with pentobarbital or ether. The corticosterone release in the serum was determined by a specific radioimmunoassay as a parameter of the effect. It emerged that the corticosterone release over 3 h after nasal treatment, for example, with the ACTH analog alsactide (ACTH-17) in a dose of 5 μg was increased by a factor of 5 in the presence of 0.01M bacitracin.

[6] = test system: male rats; test: Serum calcium concentration in male rats after intranasal salmon calcitonin; type: in vivo, rat; conditions: 0.6-1.2 μg of salmon calcitonin intranasal, addition of 0.01M bacitracin, 1-6 h
Experimental: 5. The effect of cyclic peptides on the absorption of calcitonin and calcitonin analogs (for example salmon calcitonin) can be investigated on male rats weighing 100 or 200 g, for example after intranasal treatment with salmon calcitonin, by determination of the serum calcium concentration over a period of 1-6 h after the treatment. It was found in this that the effect of 0.6-1.2 μg of salmon calcitonin was increased by a factor of 4-6 by addition of, for example, 0.01M bacitracin.

[7] = test system: isolated gastric mucosa of the guinea pig; test: Tolerability: patent blue permeation through isolated guinea pig gastric mucosa
Source text: 6. The tolerability of various cyclic peptides as are used as aids to increase absorption can be tested on the isolated gastric mucosa of the guinea pig. [Wirth K, Bickel M & Deutschlander N (1987): Patent blue permeation through the isolated guinea pig gastric mucosa: a quantitative method for the assessment of gastric irritants. Med. Sci. Res. 15, 881.]

[8] = test system: rat; test: Increase of absorption of peptide active substances from the mucosa in the rat; type: in vivo
Experimental: 1. The effect of cyclic peptides on the nasal and rectal absorption of LHRH (gonadorelin) and LHRH agonists (for example buserelin) was investigated in the following way: female rats weighing 60 g are pretreated with horse serum gonadotropin (PMSG) 10 I.U. (day 1, 09:00) for follicle stimulation. On the third day after the pretreatment, the ovulation which spontaneously occurs at about 14:00 is suppressed by injection of phenobarbital (4 mg/animal i.p. around 13:00). […] On the next day of the experiment (day 4) the animals are sacrificed at about 09:00, both uterine tubes are dissected out and, after staining with patent blue, the number of ova is counted under a stereomicroscope (ovulatory effect of the test substances). The increase in the absorption of the test substances from mucosal surfaces is assessed by comparison of the effect on ovulation in the absence or after addition of, for example, bacitracin 0.001-0.05M. […]
2. […] It emerged that both bacitracin and colistin and polymyxin B (0.01M) increased the effect of a dose of 10 ng of buserelin, measured by the areas under the curve, by a factor of 3.3-14.
3. […] GH in serum is determined 15-120 minutes after the treatment (for example nasally or rectally) by a specific radioimmunoassay.

[9] = test system: rectal mucosa; test: Rectal mucosa tolerability of hard fat suppositories in rats; type: in vivo, rat; conditions: hard fat suppositories with 1 mg of bacitracin, rats weighing 100 g, 3 hours after treatment
Experimental: Furthermore, the compounds according to the invention cause no sensation of pain in humans on nasal administration of 1 to 200 μl of a concentration of 10^-5 to 10^-1 mol/l. […] Local administration of the same concentration by vaginal, rectal or buccal drug forms (i.e., for example, films, tablets, suppositories) likewise causes no irritation to the mucosa.

Compound: CCNC(=O)[C@@H]1CCCN1C(=O)[C@H](CCCNC(=N)N)NC(=O)[C@H](CC(C)C)NC(=O)[C@@H](COC(C)(C)C)NC(=O)[C@H](Cc1ccc(O)cc1)NC(=O)[C@H](CO)NC(=O)[C@H](Cc1c[nH]c2ccccc12)NC(=O)[C@H](Cc1cnc[nH]1)NC(=O)[C@@H]1CCC(=O)N1 [buserelin]
- dose of buserelin giving the same ovulatory effect, without aid ([1]; buserelin in physiological saline containing 0.1% gelatin): 80 ng
- dose of buserelin at which ovulation occurred, rectal suppositories, without bacitracin ([1]; rectal treatment of rats with buserelin suppositories, no aid): 400 ng

Compound: (Leu27, Gly45) GHRH (1-44)
- finding with other GHRH agonists on addition of bacitracin (GH release) [2]: similar

Compound: colistin
- enhancement of LHRH effect on investigation of the LH release ([3]; LHRH in the presence of 0.001M colistin): this effect also emerged
- increase of the effect of buserelin on LH release, areas under the curve, factor [4]: 3.3-14

Compound: bacitracin
- dose of LHRH giving the same ovulatory effect, with aid ([1]; LHRH in a solution of 0.001M bacitracin, equals effect of 8 μg without aid): 2 µg
- dose of buserelin giving the same ovulatory effect, with aid ([1]; buserelin in a solution of 0.001M bacitracin, equals effect of 80 ng without aid): 20 ng
- dose of buserelin at which ovulation was induced, rectal suppositories, after addition of bacitracin ([1]; rectal treatment of rats with buserelin suppositories plus bacitracin): 50 ng
- enhancement of absorption, factor, from LH release by buserelin ([3]; buserelin in the presence of 0.001M bacitracin): more than 3
- increase of the effect of buserelin on LH release, areas under the curve, factor [4]: 3.3-14
- dose of (DAla2) GRF-29 amide giving corresponding GH release effect, with bacitracin ([2]; i.n., addition of 0.001M bacitracin, equals effect of 40 μg without): 20 µg
- increase of corticosterone release, factor [5]: 5
- increase of the effect of salmon calcitonin (serum calcium), factor [6]: 4-6
- concentration that can be placed on the mucosa without damage [7]: more than 0.006 M
- increase of absorption of LHRH agonists, GHRH agonists and similar active substances, factor ([8]; addition of 0.001M bacitracin): 3-4
- inflammatory change of the rectal mucosa [9]: no inflammatory change

Compound: (DAla2) GRF-29 amide
- dose of (DAla2) GRF-29 amide giving corresponding GH release effect, without bacitracin ([2]; i.n., without bacitracin): 40 µg

Compound: CC(C)C[C@H](NC(=O)CNC(=O)[C@H](Cc1ccc(O)cc1)NC(=O)[C@H](CO)NC(=O)[C@H](Cc1c[nH]c2ccccc12)NC(=O)[C@H](Cc1cnc[nH]1)NC(=O)[C@@H]1CCC(=O)N1)C(=O)N[C@@H](CCCNC(=N)N)C(=O)N1CCC[C@H]1C(=O)NCC(N)=O [LHRH, LHRH (gonadorelin)]
- dose of LHRH giving the same ovulatory effect, without aid ([1]; LHRH in physiological saline containing 0.1% gelatin): 8 µg

Compound: polymyxin B
- increase of the effect of buserelin on LH release, areas under the curve, factor [4]: 3.3-14

Compound: C[C@H](CCC(=O)O)[C@H]1CC[C@H]2[C@@H]3CC[C@@H]4C[C@H](O)CC[C@]4(C)[C@H]3C[C@H](O)[C@]12C [deoxycholic acid]
- concentration required to increase absorption in the rat ([8]; rat, in vivo): 0.02 M

Compound: (DAla2, NLeu27) GRF-29 amide
- finding with other GHRH agonists on addition of bacitracin (GH release) [2]: similar
